From paper PMC6994497, “Structural basis for Glycan-receptor binding by mumps virus hemagglutinin-neuraminidase” (Scientific Reports, 2020)

Biological target: T1, MuV-HN (Mumps orthorubulavirus, UniProt Q9WAF5)
T1 construct: pHLsec N-terminal secretion signal, C-terminal His6 tag; secreted from HEK293S GnTI(-) cells; Ni-NTA and size exclusion
Test: STD NMR
Format: binding
Conditions: deuterated phosphate buffer pH 7.4; reaction mixture after hydrolysis of 1, also free reducing sialic acid

T1 sequence (Q9WAF5 96-582): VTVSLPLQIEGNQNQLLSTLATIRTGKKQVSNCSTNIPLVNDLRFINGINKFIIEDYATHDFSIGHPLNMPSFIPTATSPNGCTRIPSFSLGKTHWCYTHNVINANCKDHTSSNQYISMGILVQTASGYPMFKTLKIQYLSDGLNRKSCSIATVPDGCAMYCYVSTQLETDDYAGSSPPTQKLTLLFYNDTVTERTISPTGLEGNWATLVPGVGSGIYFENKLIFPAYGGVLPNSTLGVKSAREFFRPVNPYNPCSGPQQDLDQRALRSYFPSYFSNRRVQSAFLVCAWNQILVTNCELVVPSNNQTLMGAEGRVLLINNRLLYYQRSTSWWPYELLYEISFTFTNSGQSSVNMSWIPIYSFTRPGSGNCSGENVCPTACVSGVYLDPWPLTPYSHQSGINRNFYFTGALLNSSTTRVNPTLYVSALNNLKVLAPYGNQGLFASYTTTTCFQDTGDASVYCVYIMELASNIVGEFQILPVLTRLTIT

With `CC(=O)N[C@H]1[C@H]([C@H](O)[C@H](O)CO)OC(O)(C(=O)O)C[C@@H]1O` (stereo partly shown) [reducing Sia] the “STD NMR” value was “the protein was able to bind the reducing sialic acid produced during the hydrolysis reaction”.
